Assay results as given in patent US10047050B2, “3,4-di-substituted pyridine compound, methods of using and compositions comprising the same” (ARDEA BIOSCIENCES, INC., priority 2011, dated 2018).
Several values for one entry are separate records, joined by “and”; a condition that tells them apart may be missing. Equal entries are not always repeated.

Tested on: serum uric acid
Test: Single-dose Phase I clinical trial, serum uric acid (sUA) 0-72 hours post-dose
Type: in vivo, human
Conditions: for Absolute sUA concentration, Mean (3-8) / % sUA reduction (from baseline), Mean (3-8) / % sUA change (from baseline), Mean (3-8): mean of subjects 3-8; for % sUA reduction (from baseline) / % sUA change (from baseline): individual subjects 3-8
Experimental: A Phase 1, Randomized, Double-Blind, Placebo-Controlled Study to Evaluate Safety, Tolerability, Pharmacokinetics and Preliminary Food Effect of Single Doses of a URAT1 Inhibitor, in Healthy Adult Male Volunteers.
To assess safety, tolerability, pharmacokinetics and uricosuric effects after oral administration as single doses of a tablet formulation and the effect of food on bioavailability.
Subjects receive a single, oral dose of active or placebo, at the following doses:
Group 4: 20 mg (fasted) [sentinel dosing];
48 subjects in 6 dose groups, 8 subjects/group, are randomized 3:1 to receive active (6/group) or placebo (2/group). All study procedures are the same regardless of whether subject receives active or placebo. The total duration of subject participation, including screening period, is ˜2-4 weeks, and the total volume of blood collected from each subject during the entire study <500 mL, (less than typically collected during a volunteer blood donation).
5 mg and 20 mg, active and placebo, tablets packaged in 35 count HDPE bottles, stored at controlled room temperature (15-30° C.). Placebo tablets are designed to match the active tablets—identical size, form, taste, and color, and containing the same excipients. 2 mg was dosed as an oral solution.
Subjects dosed on the morning of Day 1 with ˜240 mL of room temp water.
Fasted: subjects are dosed after overnight fast >10 hours and remain fasted until >4 hours post-dose.
Fed: subjects fast overnight for >10 hours, then are dosed 30 mins after completing standard moderate fat breakfast (no high fructose corn syrup).
Serum samples are collected at:
PD samples are frozen (−20° C.) and stored; all samples from a given subject assayed in a single analytical run.

[1] = Group 3, 5 mg single oral dose, fed, 54 h post-dose
[2] = Group 3, 5 mg single oral dose, fed, 60 h post-dose
[3] = Group 3, 5 mg single oral dose, fed, 72 h post-dose
[4] = Group 4, 20 mg single oral dose, fasted, 0 h (baseline)
[5] = Group 4, 20 mg single oral dose, fasted, 6 h post-dose
[6] = Group 4, 20 mg single oral dose, fasted, 12 h post-dose
[7] = Group 4, 20 mg single oral dose, fasted, 24 h post-dose
[8] = Group 4, 20 mg single oral dose, fasted, 30 h post-dose
[9] = Group 4, 20 mg single oral dose, fasted, 36 h post-dose
[10] = Group 4, 20 mg single oral dose, fasted, 48 h post-dose
[11] = Group 4, 20 mg single oral dose, fasted, 54 h post-dose
[12] = Group 4, 20 mg single oral dose, fasted, 60 h post-dose
[13] = Group 4, 20 mg single oral dose, fasted, 72 h post-dose
[14] = Group 5, 20 mg single oral dose, fed, 0 h (baseline)
[15] = Group 5, 20 mg single oral dose, fed, 6 h post-dose
[16] = Group 5, 20 mg single oral dose, fed, 12 h post-dose
[17] = Group 5, 20 mg single oral dose, fed, 24 h post-dose
[18] = Group 5, 20 mg single oral dose, fed, 30 h post-dose
[19] = Group 5, 20 mg single oral dose, fed, 36 h post-dose
[20] = Group 5, 20 mg single oral dose, fed, 48 h post-dose
[21] = Group 5, 20 mg single oral dose, fed, 54 h post-dose
[22] = Group 5, 20 mg single oral dose, fed, 60 h post-dose
[23] = Group 5, 20 mg single oral dose, fed, 72 h post-dose
[24] = Group 6, 40 mg single oral dose, fasted, 0 h (baseline)
[25] = Group 6, 40 mg single oral dose, fasted, 6 h post-dose
[26] = Group 6, 40 mg single oral dose, fasted, 12 h post-dose
[27] = Group 6, 40 mg single oral dose, fasted, 24 h post-dose
[28] = Group 6, 40 mg single oral dose, fasted, 30 h post-dose
[29] = Group 6, 40 mg single oral dose, fasted, 36 h post-dose
[30] = Group 6, 40 mg single oral dose, fasted, 48 h post-dose
[31] = Group 6, 40 mg single oral dose, fasted, 54 h post-dose
[32] = Group 6, 40 mg single oral dose, fasted, 60 h post-dose
[33] = Group 6, 40 mg single oral dose, fasted, 72 h post-dose

For `CC(C)(Sc1ccncc1-c1ccc(C#N)c2ccccc12)C(=O)O` [2-((3-(4-cyanonaphthalen-1-yl)pyridin-4-yl)thio)-2-methylpropanoic acid], the “Absolute sUA concentration, Mean (3-8)” value (Group 3, 5 mg single oral dose, fed, 48 h post-dose) was 4.5 mg/dL, the “% sUA reduction (from baseline)” value [1] was −37.7% and −47.0% and −27.7% and −38.3% and −21.1% and −32.5% and the “% sUA reduction (from baseline), Mean (3-8)” value (“% sUA reduction … (3-8)” below) [1] was −34.1%. For the same compound, the “Absolute sUA concentration, Mean (3-8)” value [1] was 3.9 mg/dL, the “% sUA reduction (from baseline)” value [2] was −27.5% and −28.8% and −30.8% and −20.0% and −24.6% and −35.0% and the “% sUA reduction … (3-8)” value [2] was −27.8%. The “Absolute sUA concentration, Mean (3-8)” value [2] was 4.3 mg/dL, the “% sUA reduction (from baseline)” value [3] was −14.5% and −18.2% and −20.0% and −11.7% and −15.8% and −25.0% and the “% sUA reduction … (3-8)” value [3] was −17.5%. The “Absolute sUA concentration, Mean (3-8)” value [3] was 4.9 mg/dL, the “% sUA reduction … (3-8)” value [4] was 0% and the “Absolute sUA concentration, Mean (3-8)” value [4] was 6.8 mg/dL. The “% sUA reduction … (3-8)” value [5] was −37.1%, the “Absolute sUA concentration, Mean (3-8)” value [5] was 4.3 mg/dL and the “% sUA reduction … (3-8)” value [6] was −41.2%. The “Absolute sUA concentration, Mean (3-8)” value [6] was 4.0 mg/dL, the “% sUA reduction … (3-8)” value [7] was −43.1% and the “Absolute sUA concentration, Mean (3-8)” value [7] was 3.8 mg/dL. For the same compound, the “% sUA reduction … (3-8)” value [8] was −47.4%, the “Absolute sUA concentration, Mean (3-8)” value [8] was 3.6 mg/dL and the “% sUA reduction … (3-8)” value [9] was −48.4%. The “Absolute sUA concentration, Mean (3-8)” value [9] was 3.5 mg/dL, the “% sUA reduction … (3-8)” value [10] was −39.0% and the “Absolute sUA concentration, Mean (3-8)” value [10] was 4.1 mg/dL. For the same compound, the “% sUA reduction … (3-8)” value [11] was −37.6%, the “Absolute sUA concentration, Mean (3-8)” value [11] was 4.2 mg/dL and the “% sUA reduction … (3-8)” value [12] was −37.6%. The “Absolute sUA concentration, Mean (3-8)” value [12] was 4.2 mg/dL, the “% sUA reduction … (3-8)” value [13] was −21.5% and the “Absolute sUA concentration, Mean (3-8)” value [13] was 5.3 mg/dL. For the same compound, the “% sUA reduction … (3-8)” value [14] was 0%, the “Absolute sUA concentration, Mean (3-8)” value [14] was 7.1 mg/dL and the “% sUA reduction … (3-8)” value [15] was −44.6%. For the same compound, the “Absolute sUA concentration, Mean (3-8)” value [15] was 3.9 mg/dL, the “% sUA reduction … (3-8)” value [16] was −56.5% and the “Absolute sUA concentration, Mean (3-8)” value [16] was 3.1 mg/dL. For the same compound, the “% sUA reduction … (3-8)” value [17] was −46.1%, the “Absolute sUA concentration, Mean (3-8)” value [17] was 3.8 mg/dL and the “% sUA reduction … (3-8)” value [18] was −48%. For the same compound, the “Absolute sUA concentration, Mean (3-8)” value [18] was 3.7 mg/dL, the “% sUA reduction … (3-8)” value [19] was −49.9% and the “Absolute sUA concentration, Mean (3-8)” value [19] was 3.5 mg/dL. For the same compound, the “% sUA reduction … (3-8)” value [20] was −37.6%, the “Absolute sUA concentration, Mean (3-8)” value [20] was 4.4 mg/dL and the “% sUA reduction … (3-8)” value [21] was −38.8%. The “Absolute sUA concentration, Mean (3-8)” value [21] was 4.3 mg/dL, the “% sUA reduction … (3-8)” value [22] was −40.3% and the “Absolute sUA concentration, Mean (3-8)” value [22] was 4.2 mg/dL. For the same compound, the “% sUA reduction … (3-8)” value [23] was −28.6%, the “Absolute sUA concentration, Mean (3-8)” value [23] was 5.0 mg/dL and the “% sUA change (from baseline)” value [24] was 0%. The “% sUA change (from baseline), Mean (3-8)” value [24] was 0%, the “Absolute sUA concentration, Mean (3-8)” value [24] was 6.6 mg/dL and the “% sUA change (from baseline)” value [25] was −23.7% and −51.4% and −38.2% and −54.1% and −49.2% and −42.1%. For the same compound, the “% sUA change (from baseline), Mean (3-8)” value [25] was −43.1%, the “Absolute sUA concentration, Mean (3-8)” value [25] was 3.8 mg/dL and the “% sUA change (from baseline)” value [26] was −40.8% and −68.9% and −52.9% and −63.9%. For the same compound, the “% sUA change (from baseline), Mean (3-8)” value [26] was −59.3%, the “Absolute sUA concentration, Mean (3-8)” value [26] was 2.7 mg/dL and the “% sUA change (from baseline), Mean (3-8)” value [27] was −57.6%. For the same compound, the “Absolute sUA concentration, Mean (3-8)” value [27] was 2.8 mg/dL, the “% sUA change (from baseline), Mean (3-8)” value [28] was −60.6% and the “Absolute sUA concentration, Mean (3-8)” value [28] was 2.6 mg/dL. The “% sUA change (from baseline), Mean (3-8)” value [29] was −61.4%, the “Absolute sUA concentration, Mean (3-8)” value [29] was 2.5 mg/dL and the “% sUA change (from baseline)” value [30] was −53.9% and −50.0% and −48.5% and −37.7% and −55.9% and −45.6%. For the same compound, the “% sUA change (from baseline), Mean (3-8)” value [30] was −48.6%, the “Absolute sUA concentration, Mean (3-8)” value [30] was 3.4 mg/dL and the “% sUA change (from baseline)” value [31] was −56.6% and −47.3% and −50.0% and −39.3% and −54.2% and −40.4%. For the same compound, the “% sUA change (from baseline), Mean (3-8)” value [31] was −48.0%, the “Absolute sUA concentration, Mean (3-8)” value [31] was 3.4 mg/dL and the “% sUA change (from baseline)” value [32] was −56.6% and −50.0% and −48.5% and −39.3% and −52.5% and −36.8%. The “% sUA change (from baseline), Mean (3-8)” value [32] was −47.3%, the “Absolute sUA concentration, Mean (3-8)” value [32] was 3.4 mg/dL and the “% sUA change (from baseline)” value [33] was −40.8% and −31.1% and −33.8% and −19.7% and −30.5% and −19.3%. The “% sUA change (from baseline), Mean (3-8)” value [33] was −29.2% and the “Absolute sUA concentration, Mean (3-8)” value [33] was 4.6 mg/dL.
